From publication PMC10675840, “Structure-function analysis of ceTIR-1/hSARM1 explains the lack of Wallerian axonal degeneration in C. elegans” (Cell reports, 2023)
Positions count from the first letter of the chain named.

Legend:
Assay in all cases: HPLC NAD+ consumption, Michaelis-Menten fit
Format in all cases: biochemical
Details in all cases: […] C, […] min, pH […]
ceTIR-1 [1] = target: T1, ceTIR-1 (Caenorhabditis elegans, UniProt Q86DA5, R828K)
T1 construct: gene tir-1; near-intact ARM-SAM-SAM-TIR, residues 162-872 (HMD...QQR), N-terminal 6xHis + TEV site, HEK293F expression, mostly 9-mer ring, partly dissociated
T1 sequence (Q86DA5 216-926 R828K): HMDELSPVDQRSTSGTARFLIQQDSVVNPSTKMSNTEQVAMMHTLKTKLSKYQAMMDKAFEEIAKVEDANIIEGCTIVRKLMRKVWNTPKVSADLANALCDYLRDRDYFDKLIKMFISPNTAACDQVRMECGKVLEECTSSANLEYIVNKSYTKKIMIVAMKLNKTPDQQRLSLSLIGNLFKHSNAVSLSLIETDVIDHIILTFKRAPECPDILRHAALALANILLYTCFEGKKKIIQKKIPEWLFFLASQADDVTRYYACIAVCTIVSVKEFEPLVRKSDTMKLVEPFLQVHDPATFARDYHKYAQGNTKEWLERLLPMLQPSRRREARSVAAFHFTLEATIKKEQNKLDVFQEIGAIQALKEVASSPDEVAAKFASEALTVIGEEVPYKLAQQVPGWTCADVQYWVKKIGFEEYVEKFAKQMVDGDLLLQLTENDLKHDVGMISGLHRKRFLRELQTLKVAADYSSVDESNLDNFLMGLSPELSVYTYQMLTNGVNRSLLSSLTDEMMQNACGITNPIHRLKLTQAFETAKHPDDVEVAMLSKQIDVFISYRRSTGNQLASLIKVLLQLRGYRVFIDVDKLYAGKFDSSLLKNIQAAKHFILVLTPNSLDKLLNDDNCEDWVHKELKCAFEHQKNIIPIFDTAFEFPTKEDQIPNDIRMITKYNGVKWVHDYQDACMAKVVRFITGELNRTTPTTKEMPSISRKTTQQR

ceTIR-1 [2] = target: T2, ceTIR-1 (Caenorhabditis elegans, UniProt Q86DA5, D888E)
T2 construct: gene tir-1; near-intact ARM-SAM-SAM-TIR, residues 162-872 (HMD...QQR), N-terminal 6xHis + TEV site, HEK293F expression, mostly 9-mer ring, partly dissociated
T2 sequence (Q86DA5 216-926 D888E): T1 sequence (Q86DA5 216-926 R828K) with K613R, D673E

ceTIR-1 [3] = target: T3, ceTIR-1 (Caenorhabditis elegans, UniProt Q86DA5, F863W)
T3 construct: gene tir-1; near-intact ARM-SAM-SAM-TIR, residues 162-872 (HMD...QQR), N-terminal 6xHis + TEV site, HEK293F expression, mostly 9-mer ring, partly dissociated
T3 sequence (Q86DA5 216-926 F863W): T1 sequence (Q86DA5 216-926 R828K) with K613R, F648W

## NC(=O)c1ccc[n+]([C@@H]2O[C@H](COP(=O)(O)OP(=O)(O)OC[C@H]3O[C@@H](n4cnc5c(N)ncnc54)[C@H](O)[C@@H]3O)[C@@H](O)[C@H]2O)c1 [NAD^+]
ceTIR-1 [1]
  Km: none of these substitutions had any significant effect on Km
ceTIR-1 [2]
  Km: none of these substitutions had any significant effect on Km
ceTIR-1 [3]
  Km: none of these substitutions had any significant effect on Km
